Results as given in the supplement of paper PMC10307832.

Experiments:
Assay in all cases: relative viability (nuclei count vs DMSO), 5 days (fraction); higher = more cells survive
[1] = compound: N#CC[C@H](C1CCCC1)n1cc(-c2ncnc3[nH]ccc23)cn1 [Ruxolitinib] + N=C(N)NC(=N)NCCc1ccccc1 [Phenformin] (partner 250 µM)
Procedure, shortened: (§1)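 The day after seeding in 1536-well plates, lung cancer cell lines were treated by pin tool with a single drug, or with a fixed anchor-drug dose together with five library-drug doses (not always all listed) in √10 steps. After 5 days, a combined fix-and-stain solution (final 0.05% Triton X-100, 1% formaldehyde, 1 ug/ml Hoechst) was added. Nuclei counted on 4× images gave relative viability as treated counts over vehicle counts, reported as the median of duplicate plates.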

[2] = compound: CS(=O)(=O)c1ccc(C(=O)Nc2ccc(Cl)c(-c3ccccn3)c2)c(Cl)c1 [Vismodegib] + Cc1nc(NC(=O)N2CCC[C@H]2C(N)=O)sc1-c1ccnc(C(C)(C)C(F)(F)F)c1 [Alpelisib] (partner 2 µM)
Procedure, shortened: as §1

[3] = compound: CS(=O)(=O)c1ccc(-c2cnc(N)c(C(=O)Nc3ccccc3)n2)cc1 [VE-821] + CS(=O)(=O)N1CCN(Cc2cc3nc(-c4cccc5[nH]ncc45)nc(N4CCOCC4)c3s2)CC1 [Pictilisib] (partner 1 µM)
Procedure, shortened: as §1

[4] = compound: CS(=O)(=O)c1ccc(-c2cnc(N)c(C(=O)Nc3ccccc3)n2)cc1 [VE-821] + CC(=O)Nc1cccc(-n2c(=O)n(C3CC3)c(=O)c3c(Nc4ccc(I)cc4F)n(C)c(=O)c(C)c32)c1 [Trametinib] (partner 0.02 µM)
Procedure, shortened: as §1

| Cell Line | relative viability ([1]; first compound 0.08 µM) | relative viability ([1]; first compound 0.253 µM) | relative viability ([1]; first compound 0.8 µM) | relative viability ([1]; first compound 2.53 µM) | relative viability ([1]; first compound 8 µM) | relative viability ([2]; first compound 0.08 µM) | relative viability ([2]; first compound 0.253 µM) | relative viability ([2]; first compound 0.8 µM) | relative viability ([2]; first compound 2.53 µM) | relative viability ([2]; first compound 8 µM) | relative viability ([3]; first compound 0.08 µM) | relative viability ([3]; first compound 0.253 µM) | relative viability ([3]; first compound 0.8 µM) | relative viability ([3]; first compound 2.53 µM) | relative viability ([3]; first compound 8 µM) | relative viability ([4]; first compound 0.08 µM) | relative viability ([4]; first compound 0.253 µM) | relative viability ([4]; first compound 0.8 µM) | relative viability ([4]; first compound 2.53 µM) | relative viability ([4]; first compound 8 µM) |
| --- | --- | --- | --- | --- | --- | --- | --- | --- | --- | --- | --- | --- | --- | --- | --- | --- | --- | --- | --- | --- |
| HCC-78 | 0.756 | 0.563 | 0.788 | 0.662 | 0.729 | 0.369 | 0.346 | 0.267 | 0.359 | 0.362 | 0.207 | 0.237 | 0.229 | 0.22 | 0.206 | 0.816 | 0.646 | 0.689 | 0.855 | 0.917 |
| HCC-366 | 0.584 | 0.654 | 0.667 | 0.542 | 0.472 | 0.436 | 0.467 | 0.362 | 0.402 | 0.556 | 0.152 | 0.252 | 0.0721 | 0.127 | 0.101 | 0.38 | 0.381 | 0.293 | 0.13 | 0.0642 |
| HCC-827 |  | 0.35 | 0.32 | 0.304 | 0.411 | 0.982 | 0.993 | 0.972 | 0.998 | 0.949 | 1.1 | 1.03 | 1.19 | 1.24 | 1.19 | 0.613 | 0.524 | 0.565 | 0.52 | 0.499 |
| HOP-62 | 0.678 | 0.629 | 0.699 | 0.668 | 0.63 | 0.92 | 0.906 | 0.978 | 0.919 | 1.12 | 0.689 | 0.785 | 0.807 | 0.944 | 0.516 | 0.402 | 0.413 | 0.351 | 0.403 | 0.429 |
| IA-LM |  |  |  |  |  | 0.778 | 0.728 | 0.966 | 0.582 | 1.04 | 0.412 | 0.341 | 0.443 | 0.749 | 0.551 |  |  |  |  |  |
| LC-2-ad |  | 0.515 | 0.561 | 0.553 | 0.456 | 0.894 | 0.909 | 0.859 | 0.818 | 0.918 | 0.704 | 0.392 | 0.545 | 0.514 | 0.373 | 0.985 | 0.886 | 0.879 | 0.912 | 0.956 |
| LCLC-97TM1 | 0.438 | 0.43 | 0.507 | 0.428 | 0.378 |  |  | 0.287 |  | 0.287 | 0.178 | 0.203 | 0.229 | 0.224 | 0.137 | 0.225 | 0.152 | 0.194 | 0.227 | 0.217 |
| LCLC-103H | 0.349 | 0.326 | 0.298 | 0.337 | 0.286 | 1.05 | 0.973 | 0.908 | 0.978 | 0.947 | 0.572 | 0.51 | 0.663 | 0.75 | 0.494 | 0.748 | 0.662 | 0.675 | 0.68 | 0.663 |
| LK-2 | 0.337 | 0.499 | 0.359 | 0.292 | 0.692 | 1.24 | 1.04 | 0.805 | 0.952 | 1.22 | 0.709 | 0.59 | 0.601 | 0.595 | 0.606 | 1.02 | 0.775 | 0.734 | 0.897 | 0.818 |
| LOU-NH91 |  | 0.708 | 0.765 | 0.63 | 0.747 | 0.693 | 0.782 | 0.699 | 0.695 | 0.755 | 0.527 | 0.506 | 0.496 | 0.524 | 0.525 | 0.813 | 0.784 | 0.776 | 0.821 | 0.752 |
| LU99A | 1.06 | 0.931 | 0.801 | 0.782 | 0.755 | 0.617 | 0.544 | 0.474 | 0.499 | 0.556 | 0.362 | 0.311 | 0.29 | 0.319 | 0.253 | 0.532 | 0.541 | 0.572 | 0.528 | 0.29 |
| LXF-289 | 0.509 | 0.492 | 0.538 | 0.491 | 0.497 | 1 | 0.993 | 1.07 | 0.994 | 1.04 | 0.969 | 0.754 | 0.796 | 0.869 | 0.808 | 0.708 | 0.641 | 0.773 | 0.745 | 0.741 |
| NCI-H522 | 0.663 | 0.644 | 0.728 | 0.575 | 0.617 |  |  |  |  |  |  |  |  |  |  | 0.859 | 0.753 | 0.65 | 0.769 | 0.717 |
| NCI-H1299 |  |  |  |  |  | 0.984 | 1.04 | 1.06 | 0.973 | 1.04 | 0.769 | 0.606 | 0.689 | 0.771 | 0.357 |  |  |  |  |  |
| NCI-H1563 | 0.667 | 0.69 | 0.643 | 0.593 | 0.602 | 0.896 | 0.88 | 1.01 | 0.889 | 1.02 | 0.581 | 0.613 | 0.648 | 0.663 | 0.731 |  |  |  |  |  |
| NCI-H1623 | 0.525 | 0.608 | 0.574 | 0.637 | 0.343 |  |  |  |  |  |  |  |  |  |  |  |  |  |  |  |
| NCI-H1648 |  |  |  |  |  |  |  |  |  |  |  |  |  |  |  | 0.581 |  | 0.394 | 0.729 | 0.575 |
| NCI-H1650 |  | 0.315 | 0.455 | 0.388 | 0.331 |  |  |  |  |  | 0.677 | 0.506 | 0.57 | 0.638 | 0.499 | 0.869 | 0.453 | 0.668 | 0.586 | 0.402 |
| NCI-H1703 |  |  |  |  |  | 0.315 | 0.311 | 0.407 | 0.306 | 0.422 | 0.241 | 0.233 | 0.25 | 0.227 | 0.192 |  |  |  |  |  |
| NCI-H2342 | 0.55 | 0.484 | 0.662 | 0.55 | 0.613 |  |  |  |  |  |  |  |  |  |  | 0.804 | 0.907 | 0.8 | 0.849 | 0.492 |
| SW 900 | 0.532 | 0.624 | 0.702 | 0.543 | 0.457 |  |  |  |  |  |  |  |  |  |  | 0.675 | 0.792 | 0.687 | 0.706 | 0.403 |
